Test results: patent US7094770B2, “3′-or 2′-hydroxymethyl substituted nucleoside derivatives for treatment of hepatitis virus infections” (Pharmasset, Ltd., priority 2000, dated 2006)
pEC50: −log10 of the molar value.

How the values were obtained:
[1] = Cytotoxicity in PBM cells; assay type: cell-based, human; conditions: human
Procedure: (§1) We also perform toxicity assays by measuring the inhibition of uptake of […] dye by treated cells. These assays are done in 96 well plates. After the standard 10 day treatment regimen medium is removed and PBS containing MTS dye added to each well. After a 2 hour incubation the absorbance of the metabolized product is measured at 490 nm.
(§2) Human PBM cells from healthy donors, seronegative for HIV-1 and HBV, are isolated by a single-step Ficoll-Hypaque discontinuous gradient centrifugation and propagated as described previously (Schinazi et al., Antimicrobial Agents Chemother., 1990, 34:1061; 1992, 36:2423; 1993, 37:875). Compounds are screened for activity against HIV-1 and cytotoxicity by a protocol reported previously reported by Schinazi, et al. The prototype strain of HIV-1LAI obtained from the Centers for Disease Control and Prevention, Atlanta, Ga., is used as the standard virus for the studies in human PBM cells.

[2] = test system: HIV-1; assay: Anti-HIV evaluation in human PBM cells; assay type: cell-based; conditions: for pEC50: Human immunodeficiency virus 1, PBMC, HIV-1
Description: as §2

[3] = test system: HBV; assay: Cell culture assay for anti-HBV activity (2.2.15 cells, HBV DNA in medium by Southern blot); assay type: cell-based, Hepatitis B virus; conditions: for pEC50: Hepatitis B virus, read-out: Anti-HBV EC50
Description: We follow the protocol described by Korba and Gerin(Antiviral Res., 1992, 19:55) and Pai et al. (Antimicrobial Agents Chemother., 1996, 40:380) which is used widely in the field. The HepG 2 2.2.15 cells contain a stably integrated HBV genome, the transcript from which serves as a template for viral replication. The cells produce virions which are elaborated into the medium. The production of the virion DNA is monitored by analysis of medium by Southern blotting. Drugs which inhibit viral replication reduce the levels of virion DNA in the medium, relative to controls.
Confluent cells in 24 well tissue culture dishes are treated with test compounds starting at 1 nM and extending logarithmically to 10 μM (1 nM, 3.2, 10 nM, 32, 100 nM, 1 μM, 10 μM […]). Medium is changed […] every 3 days and DNA extracted from the 3, 6, and […] day samples. The virions are concentrated by polyethylene glycol precipitation (equal volume addition of PEG 8000). After cooling on ice the samples are spun and the pellets treated with SDS and Proteinase K followed by Phenol:Chloroform extraction and ethanol precipitation of the DNA. The DNA is analyzed for HBV sequences by Southern hybridization. The probe used for the analysis is a ^32P labeled Eco RI fragment from the HBV clone described by Korba et al. 3TC is used as a positive control compound with known activity against HBV.
System: The most widely used system for the study of anti-HBV agents is the hepatoma cell culture system with the HBV genome. These cells are designated as the 2.2.15 cells, AD38 cells and AD79 cells. The 2.2.15 cells were generated by the transfection of the human hepatoma cells—HepG2 with HBV DNA. (Sells, et al., Proc. Natl. Acad. Sci. USA 84:1005–1009, 1987) HBV viral replication takes place in these cells. The HBV replication can be monitored intracellularly as well as extracellularly in these cells.
Assay for Anti-HBV agents: 2.215 cells are grown in multi-well dishes in RPMI medium supplemented with 4% fetal bovine serum. After 3 to 4 days of growing the cells, they are treated with varying concentrations of the test compound(s). The test compounds are dissolved in DMSO or sterile water. Cultures without the addition of the test compounds serve as controls. The addition of the test compound(s) is repeated at 3-day intervals. The medium is changed and replaced with appropriate concentration of the test compound. At the end of the 9-day treatment period, the culture medium is harvested and processed for viral DNA. The viral DNA thus obtained is analyzed by Southern blot analysis. After the Southern transfer, the blot is subjected to hybridization to an HBV specific probe to detect HBV DNA. The hybriodization is carried out overnight. After the hybridization, free probe is removed by washing of the blots. The specific hybridization is visualized by autoradiography. Inhibition produced by the test compound is calculated with reference to the levels of HBV DNA in the control samples.

[4] = Cytotoxicity in CEM cells; assay type: cell-based; conditions: human
Procedure: as §1

[5] = Cytotoxicity in Vero cells; assay type: cell-based; conditions: African green monkey
Procedure: as §1

[6] = Cytotoxicity in HepG2 cells; assay type: cell-based; conditions: human
Procedure: as §1

| SMILES | IC50 [1] [µM] | pEC50 [2] | pEC50 [3] | IC50 at 10 day [4] [µM] | IC50 at 10 day [5] [µM] | IC50 at 10 day [6] [µM] | Inhibition of HIV replication (in words) [2] | Inhibition of HBV replication (in words) [3] | Antiviral activity (in words) ([3]; virus not named) |
| --- | --- | --- | --- | --- | --- | --- | --- | --- | --- |
| O=c1ccn(C2OC(CO)C(CO)C2F)c(=O)[nH]1 (centres unmarked) [Compound 13 (Series 2)] | > 100 | < 4.00 | < 5.00 | > 100 | > 100 | – | – | – | – |
| Cc1cn(C2CC(CCl)C(CO)O2)c(=O)[nH]c1=O (centres unmarked) [Compound 3 (Series 1)] | > 100 | < 4.00 | < 5.00 | – | > 100 | – | – | – | – |
| CN1OC(n2ccc(N)nc2=O)CC1CO (centres unmarked) [Compound 39 (Series 2)] | > 100 | < 4.00 | < 5.00 | > 100 | > 100 | – | – | – | – |
| CN(O)C1C(CO)OC(n2ccc(N)nc2=O)C1F (centres unmarked) [Compound 59 (Series 2)] | > 100 | 6.31 | ≥ 5.00 | 65.3 | > 100 | > 100 | potent inhibitors | potent inhibitors | – |
| Cc1cn(C2CC(CO)N(C)O2)c(=O)[nH]c1=O (centres unmarked) [Compound 6 (Series 2)] | > 100 | < 4.00 | < 5.00 | > 100 | > 100 | – | – | – | – |
| CC1=CC(C2CC(CO)N(C)O2)C(=O)NC1=O (centres unmarked) [Compound 5 (Series 2)] | > 100 | < 4.00 | < 5.00 | – | – | – | – | – | – |
| CCCCN(O)C1C(CO)OC(n2cc(C)c(=O)[nH]c2=O)C1F (centres unmarked) [Compound 71 (Series 2)] | 13 | 4.09 | > 5.00 | 30.1 | 68.5 | – | – | – | moderate activities |
| Cc1cn(C2OC(CO)C(N(C)O)[C@@H]2F)c(=O)[nH]c1=O (some centres unmarked) [Compound 55 (Series 2)] | > 100 | 4.17 | < 5.00 | > 100 | > 100 | – | – | – | – |
| Cc1cn(C2OC(CO)C(C)C2F)c(=O)[nH]c1=O (centres unmarked) [Compound 22 (Series 2)] | > 100 | < 4.00 | < 5.00 | > 100 | > 100 | – | – | – | – |
| Nc1ccn(C2OC(CO)C(CCO)C2F)c(=O)n1 (centres unmarked) [Compound 24 (Series 2)] | > 100 | < 4.00 | < 5.00 | > 100 | > 100 | – | – | – | – |
| Cc1cn(C2OC(CO)C(CO)C2F)c(=O)nc1N (centres unmarked) [Compound 2 (Series 2)] | > 100 | < 4.00 | < 5.00 | – | > 100 | – | – | – | – |
| CN(O)C1C(CO)OC(n2ccc(N)nc2=O)[C@H]1F (some centres unmarked) [Compound 58 (Series 2)] | 7.4 | 7.05 | 6.19 | 40.2 | ~106 | > 100 | potent inhibitors | potent inhibitors | – |
| CN(O)C1C(CO)OC(n2cc(F)c(=O)[nH]c2=O)C1F (centres unmarked) [Compound 60 (Series 2)] | > 100 | < 4.00 | < 5.00 | > 100 | > 100 | – | – | – | – |
| Cc1cn(C2CC(CI)C(CO)O2)c(=O)[nH]c1=O (centres unmarked) [Compound 5 (Series 1)] | > 100 | < 4.00 | < 5.00 | – | > 100 | – | – | – | – |
| CC1C(CO)OC(n2cc(F)c(N)nc2=O)C1F (centres unmarked) [Compound 21 (Series 2)] | > 100 | < 4.00 | < 5.00 | > 100 | > 100 | – | – | – | – |
